{"source": "paper PMC6931124", "about": "“NPY1R-targeted peptide-mediated delivery of a dual PPARα/γ agonist to adipocytes enhances adipogenesis and prevents diabetes progression” (Molecular Metabolism, 2019)", "key": {"[1]": {"tested_on": "3T3-L1 preadipocytes", "test": "AdipoRed adipogenesis assay, 3T3-L1", "format": "cell-based, murine", "details": "24 h; tesa 10/25/100 μM, tesa-NPY 100 μM; AdipoRed fluorescence, DMSO = 100%; n = 3 in quadruplicate", "procedure": "(§1) 3T3-L1 or SGBS cells were seeded into 96-well plates and grown to complete confluency (set as day 0). On day 2 of confluence, the 3T3-L1 cells were differentiated by DMEM High Glucose Medium supplemented with 10% (v/v) not-heat inactivated FCS, 0.5 mM IBMX, 167 nM human insulin, and 1 μM dexamethasone (differentiation medium). On day 4, the medium was replaced by insulin medium (DMEM High Glucose Medium, 10% not-heat inactivated FCS, and 167 nM human insulin). On day 6, the medium was changed to standard culture medium and changed every other day until full differentiation was achieved (on day 8). The SGBS cells were differentiated as previously described. […] On day 4, the medium was replaced by 3FC medium (DMEM High Glucose Medium and Hams F12 (1:1 (v/v))) without FCS and supplemented with 0.01 mg human apo-transferrin, 20 nM human insulin, triiodo-L-thyronine, and 100 nM hydrocortisone. The medium was changed every second day until full differentiation was achieved (day 10). […]\n(§2) (A, B) Cells were differentiated and stimulated according to the protocol depicted for 3T3-L1 (A) and for SGBS (B). […] (E,F) Expression of adipocyte-enriched genes in 3T3-L1 (E) or SGBS (F) adipocytes analyzed by qPCR. […] Statistical significances refer to DMSO-treated cells and were determined by one-way analysis of variance (ANOVA) followed by Dunnett's multiple comparison test, *≤0.05, **p ≤ 0.01, ***p ≤ 0.001."}, "[2]": {"tested_on": "SGBS preadipocytes", "test": "AdipoRed adipogenesis assay, SGBS", "format": "cell-based, human", "details": "24 h; tesa 10/25/100 μM, tesa-NPY 100 μM; AdipoRed fluorescence, DMSO = 100%; n = 3 in quadruplicate", "procedure": "as §1, §2"}, "[3]": {"tested_on": "3T3-L1 cells", "test": "qRT-PCR of adipocyte-marker genes, 3T3-L1", "format": "cell-based, murine", "details": "qPCR, vs DMSO; n ≥ 3", "procedure": "(§3) The 3T3-L1 or SGBS cells were seeded into 6-well plates and differentiated as previously described. Tesa or peptides were added to the differentiation medium at a concentration of 100 μM on day 2, followed by 12 h or 24 h incubation. On day 4, the cells were washed two times with PBS, harvested by trypsinization, and stored at −70 °C until RNA isolation was performed. […] N ≥ 3 independent experiments with two replicates were performed. For the cell culture experiments, the data were analyzed according to the 2^−ΔΔCt method using 36B4 or GAPDH as housekeeping genes and DMSO treatment as a control. Liver mRNA expression was calculated relative to 18sRNA, which was used as an internal control due to its resistance to glucose-dependent regulation. The mRNA levels were quantified using the standard curve method of QuantStudio 6 Flex software (Applied Biosystems, Foster City, CA, USA), determining the crossing points of the individual samples using an algorithm that identifies the first turning point of the fluorescence curve. Amplification of the specific transcripts was confirmed by the melting curve profiles (cooling the sample to 68 °C and heating slowly to 95 °C while measuring the fluorescence) at the end of each PCR [53].\n(A, B) Cells were differentiated and stimulated according to the protocol depicted for 3T3-L1 (A) and for SGBS (B). […] Bars represent mean ± SEM from n = 3 independent experiments performed in quadruplicates. Measurements were normalized using DMSO (vehicle)-treated cells (set to 100%). Statistical significances refer to vehicle-treated cells. (E,F) Expression of adipocyte-enriched genes in 3T3-L1 (E) or SGBS (F) adipocytes analyzed by qPCR. Values represent mean ± SEM from n ≥ 3 independent experiments performed in duplicates. […] Statistical significances refer to DMSO-treated cells and were determined by one-way analysis of variance (ANOVA) followed by Dunnett's multiple comparison test, *≤0.05, **p ≤ 0.01, ***p ≤ 0.001."}, "[4]": {"test": "Body weight change in db/db mice", "format": "in vivo", "details": "2.5 μM/kg/day, 8 days, tesa oral, peptides i.p., n = 5", "procedure": "(§4) All of the experiments were performed according to the animal ethical laws of the state Saxony, Germany, and were approved by the local animal ethics review board (Landesdirektion Sachsen, Leipzig, Germany). Female db/db mice 12–15 weeks of age were purchased from Taconic (Denmark) and housed in groups of 5 in temperature- and humidity-controlled facilities in a 12 h:12 h light–dark cycle and had free access to tap water and food (regular chow, Sniff, Soest, Germany). Three out of seven groups served as controls (N = 15, see Table 1). The 5 db/db mice were untreated and 10 db/db mice were vehicle treated either orally or intraperitoneally (i.p.). […]\n(§5) All of the mice were monitored for 9 days during the treatment period. Body weight, food intake, and water uptake were recorded daily and body composition (lean body mass and whole body fat mass) was recorded at the beginning, middle, and end of the study in the conscious mice using an EchoMRI system (Echo Medical Systems, Houston, TX, USA). At the beginning and end of the treatment period, the HbA1c levels were determined from 5 μl of whole venous blood samples using an automated chemical analyzer at the Institute of Laboratory Medicine and Clinical Chemistry and beta-ketone using an automated glucose monitor (FreeStyle Precision H, Abbott GmbH, Ludwigshafen, Germany). […]"}, "[5]": {"test": "Ketone bodies", "format": "in vivo", "details": "db/db mice, 2.5 μM/kg/day, 8 days; n = 5", "procedure": "as §4, §5"}, "[6]": {"tested_on": "PPARγ mRNA in liver", "test": "PPARγ mRNA expression in liver", "format": "in vivo", "details": "db/db mice, 2.5 μM/kg/day, 8 days; qRT-PCR relative to control animals", "procedure": "as §3, with “[53]. […]” for “[53].”"}, "[7]": {"test": "Plasma free fatty acids", "format": "in vivo", "details": "db/db mice, 2.5 μM/kg/day, 8 days; n = 5", "procedure": "as §4, with “(i.p.). One additional group (n = 5) of lean C57BL/6NTac mice was used as a metabolically healthy control group.” for “(i.p.).”\nSerum insulin (mouse insulin ELISA, Mercodia, Uppsala, Sweden), adiponectin (mouse adiponectin ELISA, AdipoGen, San Diego, CA, USA), leptin (mouse leptin ELISA, Crystal Chem, Downers Grove, IL, USA), and Mcp-1 (mouse/rat CCL2/JE/Mcp-1 Quantikine ELISA, R&D Systems, Minneapolis, MN, USA) levels were analyzed via ELISA according to the manufacturer's instructions. Serum concentrations of TG, FFA, and cholesterol were measured by an automatic chemical analyzer at the Institute of Laboratory Medicine and Clinical Chemistry."}, "[8]": {"tested_on": "LDL receptor-deficient mice", "details": "ref [94]; cited from earlier work"}}, "note": "Entries after “also recorded” stand apart in the source; their conditions may differ.", "data": [{"smiles": "CCO[C@@H](Cc1ccc(OCCc2ccc(OS(C)(=O)=O)cc2)cc1)C(=O)O", "note": "[tesa, tesaglitazar]", "values": [{"measurement": "adipogenesis (triglyceride content), 3T3-L1", "setting": "[1]", "value": "enhanced adipogenesis in both cell lines"}, {"measurement": "adipogenesis (triglyceride content), SGBS", "setting": "[2]", "value": "enhanced adipogenesis in both cell lines"}, {"measurement": "Cidec expression, 3T3-L1", "setting": "[3]", "value": "enhanced"}, {"measurement": "Fabp4 expression, 3T3-L1", "setting": "[3]", "value": "enhanced"}, {"measurement": "adiponectin expression, 3T3-L1", "setting": "[3]", "value": "upregulated"}, {"measurement": "body weight change, in words", "setting": "[4]", "value": "did not change significantly; also recorded: can prevent this weight loss"}, {"measurement": "ketone bodies", "setting": "[5]", "value": "normalization of the plasma concentration"}, {"measurement": "expression of PPARγ in the liver", "setting": "[6]", "value": "significantly enhanced the expression of PPARγ in the liver"}, {"measurement": "free fatty acids (FFA)", "setting": "[7]", "value": "normalization"}, {"measurement": "atherosclerosis in LDL receptor-deficient mice", "setting": "[8]", "value": "reduces atherosclerosis in LDL receptor-deficient mice"}]}]}
